Measured values: patent publication US20070092454A1, “Oral composition containing morin” (Colgate-Palmolive Company, priority 2005, published 2007)

Assay: LPO-CC Kamiya Bioscience kit anti-oxidant efficacy assay (methylene blue, optical density at 674 nm)
Assay type: biochemical
Conditions: simple composition containing 1.0% by weight of active; compared with 1.0% vitamin E; FIG. 1; lower optical density at 674 nm = better efficacy
Description: Reaction processes in the kit used can be summarized as follows. Cumene hydroperoxide (CHO) is combined with an enzyme mixture of ascorbic oxidase and lipoprotein lipase in order to produce lipid peroxide. Samples and standards are then combined with a second reagent containing methyl carbamate (MCDP) and hemoglobin. In the presence of hemoglobin, lipid peroxides are converted to lipid alcohols which in turn convert the MCDP to methylene blue that can be read at 674 nm. This translates to decreased color intensity which is measured by spectroscopy at 674 nm. […] In other words, the lower the optical density reading the better the anti-oxidant efficacy.

## O=c1c(O)c(-c2ccc(O)cc2O)oc2cc(O)cc(O)c12 [morin, 2′,3,4′,5,7-pentahydroxyflavone]
  anti-oxidative efficacy: anti-oxidative efficacy as good as positive control vitamin E
